Experimental data published in patent US20260102501A1, “ANTI-CANCER NUCLEAR HORMONE RECEPTOR-TARGETING COMPOUNDS” (Nuvation Bio Inc., priority 2022, published 2026).

Assays:
[1] = system: LNCap cells; assay: Cell viability assay (CellTiterGlo); format: cell-based; details: Homo sapiens, 144 h, read-out: LNCap (IC50, nM)
[2] = system: T47D cells; assay: Cell viability assay (CellTiterGlo); format: cell-based; details: Homo sapiens, 144 h, read-out: T47D (IC50, nM)
[3] = target: T1, Progesterone Receptor (PR)-LBD and coactivator peptide (Homo sapiens, UniProt P06401); assay: PR coactivator antagonist assay; details: 2.5 nM PR-LBD, 10 nM progesterone-induced fluorescence response
T1 sequence (P06401 679-913 limits assumed): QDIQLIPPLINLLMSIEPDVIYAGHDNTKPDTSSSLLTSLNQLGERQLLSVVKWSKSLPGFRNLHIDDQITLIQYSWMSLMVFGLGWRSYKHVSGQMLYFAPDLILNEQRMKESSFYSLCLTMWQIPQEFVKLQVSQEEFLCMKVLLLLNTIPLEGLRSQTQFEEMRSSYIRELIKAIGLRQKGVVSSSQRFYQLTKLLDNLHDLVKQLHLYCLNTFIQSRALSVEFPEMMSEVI

[4] = system: IEC6 cells; assay: Cell viability assay (CellTiterGlo); details: Rattus norvegicus, IEC-6, 144 h, read-out: IEC-6 (IC50, nM)
[5] = target: T2, AR (cytosol from LnCaP cells) (Homo sapiens, UniProt P10275, T878A); assay: AR binding assay (3H-R1881 displacement)
T2 sequence (P10275 1-920 T878A): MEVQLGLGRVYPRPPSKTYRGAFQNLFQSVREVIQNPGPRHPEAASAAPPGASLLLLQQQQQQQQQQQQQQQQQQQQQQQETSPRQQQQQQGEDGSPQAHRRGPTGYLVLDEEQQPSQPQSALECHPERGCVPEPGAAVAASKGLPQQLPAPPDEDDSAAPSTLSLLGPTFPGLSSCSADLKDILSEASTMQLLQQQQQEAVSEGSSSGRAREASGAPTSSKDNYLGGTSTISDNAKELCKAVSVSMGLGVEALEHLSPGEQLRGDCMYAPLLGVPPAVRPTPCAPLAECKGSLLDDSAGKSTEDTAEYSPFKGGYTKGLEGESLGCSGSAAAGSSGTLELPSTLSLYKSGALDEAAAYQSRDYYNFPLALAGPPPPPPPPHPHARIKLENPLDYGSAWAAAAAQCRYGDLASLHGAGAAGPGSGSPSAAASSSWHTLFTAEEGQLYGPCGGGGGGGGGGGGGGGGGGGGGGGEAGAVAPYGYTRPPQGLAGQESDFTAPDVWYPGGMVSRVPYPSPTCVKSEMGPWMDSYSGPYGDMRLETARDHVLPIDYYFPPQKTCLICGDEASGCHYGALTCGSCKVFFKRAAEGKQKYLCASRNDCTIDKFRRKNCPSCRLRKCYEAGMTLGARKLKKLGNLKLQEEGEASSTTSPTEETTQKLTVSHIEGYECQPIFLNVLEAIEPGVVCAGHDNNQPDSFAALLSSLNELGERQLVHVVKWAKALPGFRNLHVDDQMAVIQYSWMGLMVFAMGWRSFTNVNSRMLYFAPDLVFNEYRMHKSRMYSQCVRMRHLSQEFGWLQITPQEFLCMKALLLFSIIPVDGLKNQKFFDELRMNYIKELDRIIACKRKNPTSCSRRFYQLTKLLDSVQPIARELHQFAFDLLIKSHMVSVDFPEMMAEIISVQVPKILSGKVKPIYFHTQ
Method: The plate was then centrifuged at 3000 rpm for 30 minutes at 4° C.

[6] = target: T3, ligand binding domain of the glucocorticoid receptor (HEK293 cells stably expressing) (Homo sapiens, UniProt P04150); assay: GR antagonism assay (luciferase reporter)
T3 sequence (P04150 524-758 limits assumed): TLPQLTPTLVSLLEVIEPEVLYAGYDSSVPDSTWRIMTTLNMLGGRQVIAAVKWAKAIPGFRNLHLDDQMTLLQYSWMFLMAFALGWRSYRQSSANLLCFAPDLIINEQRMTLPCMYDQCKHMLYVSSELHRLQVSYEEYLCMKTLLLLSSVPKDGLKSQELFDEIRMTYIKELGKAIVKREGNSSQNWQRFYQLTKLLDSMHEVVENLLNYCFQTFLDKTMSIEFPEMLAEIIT

[7] = target: T4, GR (cytosol from IM-9 cells) (Homo sapiens, UniProt P04150); assay: GR binding assay (3H-Dexamethasone displacement)
T4 sequence (P04150 1-777): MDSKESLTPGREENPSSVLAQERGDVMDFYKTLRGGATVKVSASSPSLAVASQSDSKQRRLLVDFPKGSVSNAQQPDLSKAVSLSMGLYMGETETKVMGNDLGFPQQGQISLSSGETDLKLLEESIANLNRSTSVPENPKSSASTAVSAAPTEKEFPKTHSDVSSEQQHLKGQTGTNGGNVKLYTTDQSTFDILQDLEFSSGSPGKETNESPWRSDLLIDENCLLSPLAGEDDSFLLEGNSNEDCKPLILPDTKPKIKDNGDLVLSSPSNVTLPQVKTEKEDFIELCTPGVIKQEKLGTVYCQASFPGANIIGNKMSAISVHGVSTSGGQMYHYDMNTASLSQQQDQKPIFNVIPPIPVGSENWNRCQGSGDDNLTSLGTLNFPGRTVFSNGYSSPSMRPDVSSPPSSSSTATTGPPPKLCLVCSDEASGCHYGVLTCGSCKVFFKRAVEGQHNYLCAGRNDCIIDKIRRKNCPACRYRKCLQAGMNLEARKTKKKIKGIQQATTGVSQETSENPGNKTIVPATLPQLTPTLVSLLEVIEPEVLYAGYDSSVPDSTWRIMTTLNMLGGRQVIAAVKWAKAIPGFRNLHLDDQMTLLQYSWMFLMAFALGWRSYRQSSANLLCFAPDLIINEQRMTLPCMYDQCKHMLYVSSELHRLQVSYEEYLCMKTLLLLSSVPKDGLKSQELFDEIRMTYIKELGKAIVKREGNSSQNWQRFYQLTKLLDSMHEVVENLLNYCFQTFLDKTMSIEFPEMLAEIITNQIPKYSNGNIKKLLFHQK

[8] = target: T5, Progesterone PR-B receptors from human breast carcinoma T47D cells (Homo sapiens, UniProt P06401); assay: PR binding assay ([3H] Progesterone displacement)
T5 sequence (P06401 1-933): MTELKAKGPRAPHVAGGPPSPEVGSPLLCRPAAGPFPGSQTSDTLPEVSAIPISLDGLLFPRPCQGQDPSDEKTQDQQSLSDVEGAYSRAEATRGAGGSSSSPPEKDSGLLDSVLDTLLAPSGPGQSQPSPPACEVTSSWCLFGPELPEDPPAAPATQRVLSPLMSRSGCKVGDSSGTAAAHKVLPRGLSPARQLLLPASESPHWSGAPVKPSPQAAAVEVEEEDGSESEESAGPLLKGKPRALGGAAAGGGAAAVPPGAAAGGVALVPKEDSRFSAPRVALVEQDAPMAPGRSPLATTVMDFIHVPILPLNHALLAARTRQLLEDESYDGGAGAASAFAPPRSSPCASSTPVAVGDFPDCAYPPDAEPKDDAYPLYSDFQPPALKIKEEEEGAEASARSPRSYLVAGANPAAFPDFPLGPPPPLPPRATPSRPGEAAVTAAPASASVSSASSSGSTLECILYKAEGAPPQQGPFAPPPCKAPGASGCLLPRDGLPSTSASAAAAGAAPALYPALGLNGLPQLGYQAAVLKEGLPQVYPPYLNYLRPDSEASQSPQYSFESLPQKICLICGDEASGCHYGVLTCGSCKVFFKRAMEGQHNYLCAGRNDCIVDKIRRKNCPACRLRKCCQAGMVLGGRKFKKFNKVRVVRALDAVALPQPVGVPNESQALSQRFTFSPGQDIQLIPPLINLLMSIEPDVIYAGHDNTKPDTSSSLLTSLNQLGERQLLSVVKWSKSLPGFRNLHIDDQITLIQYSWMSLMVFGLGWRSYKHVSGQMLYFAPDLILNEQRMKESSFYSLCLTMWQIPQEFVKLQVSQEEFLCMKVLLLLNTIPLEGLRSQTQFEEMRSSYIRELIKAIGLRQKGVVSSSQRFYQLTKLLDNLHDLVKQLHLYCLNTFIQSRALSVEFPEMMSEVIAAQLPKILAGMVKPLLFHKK

Structure (SMILES) | IC50 [1] | IC50 [2] | PR antagonism [3] | IC50 [4] | IC50 [5] | IC50 [6] | IC50 [7] | IC50 [8]
CC[C@@]1(O)C(=O)OCc2c1cc1n(c2=O)Cc2cc3c(CN(C)C)c(OC(=O)N4C5CC4CN(CCCCCCN(C)c4ccc([C@H]6C[C@@]7(C)[C@@H](CC[C@]7(OC(C)=O)C(C)=O)[C@@H]7CCC8=CC(=O)CCC8=C76)cc4)C5)ccc3nc2-1 [Compound 3, (S)-10-((Dimethylamino)methyl)-4-ethyl-4-hydroxy-3,14-dioxo-3,4,12,14-tetrahydro-1H-pyrano[3′,4′:6,7]indolizino[1,2-b]quinolin-9-yl 3-(6-((4-((8S,11R,13S,14S,17R)-17-acetoxy-17-acetyl-13-methyl-3-oxo-2,3,6,7,8,11,12,13,14,15,16,17-dodecahydro-1H-cyclopenta[a]phenanthren-11-yl)phenyl)(methyl)amino)hexyl)-3,6-diazabicyclo[3.1.1]heptane-6-carboxylate] | 101 to 1000 nM | 10 to 100 nM | a (IC50 =< 10 nM) | > 1000 nM | 10 to 100 nM | 10 to 100 nM | < 10 nM | < 10 nM
CC[C@@]1(O)C(=O)OCc2c1cc1n(c2=O)Cc2cc3c(CN4CCN(C)CC4)c(OC(=O)N4CCN(CCCCCCN(C)c5ccc([C@H]6C[C@@]7(C)[C@@H](CC[C@]7(OC(C)=O)C(C)=O)[C@@H]7CCC8=CC(=O)CCC8=C76)cc5)CC4)ccc3nc2-1 [Compound 5, (S)-4-Ethyl-4-hydroxy-10-((4-methylpiperazin-1-yl)methyl)-3,14-dioxo-3,4,12,14-tetrahydro-1H-pyrano[3′,4′:6,7]indolizino[1,2-b]quinolin-9-yl 4-(6-((4-((8S,11R,13S,14S,17R)-17-acetoxy-17-acetyl-13-methyl-3-oxo-2,3,6,7,8,11,12,13,14,15,16,17-dodecahydro-1H-cyclopenta[a]phenanthren-11-yl)phenyl)(methyl)amino)hexyl)piperazine-1-carboxylate] | 101 to 1000 nM | 101 to 1000 nM | a (IC50 =< 10 nM) | > 1000 nM | 10 to 100 nM | 10 to 100 nM | < 10 nM | < 10 nM
CC[C@@]1(O)C(=O)OCc2c1cc1n(c2=O)Cc2cc3c(CN(C)C)c(OC(=O)N4CCN(CCCCCCCN(C)c5ccc([C@H]6C[C@@]7(C)[C@@H](CC[C@]7(OC(C)=O)C(C)=O)[C@@H]7CCC8=CC(=O)CCC8=C76)cc5)CC4)ccc3nc2-1 [Compound 6, (S)-10-((Dimethylamino)methyl)-4-ethyl-4-hydroxy-3,14-dioxo-3,4,12,14-tetrahydro-1H-pyrano[3′,4′:6,7]indolizino[1,2-b]quinolin-9-yl 4-(7-((4-((8S,11R,13S,14S,17R)-17-acetoxy-17-acetyl-13-methyl-3-oxo-2,3,6,7,8,11,12,13,14,15,16,17-dodecahydro-1H-cyclopenta[a]phenanthren-11-yl)phenyl)(methyl)amino)heptyl)piperazine-1-carboxylate] | 101 to 1000 nM | 10 to 100 nM | a (IC50 =< 10 nM) | > 1000 nM | 10 to 100 nM | 10 to 100 nM | < 10 nM | < 10 nM
CC[C@@]1(O)C(=O)OCc2c1cc1n(c2=O)Cc2cc3c(CN(C)C)c(OC(=O)N4CCN(CCCCCN(C)c5ccc([C@H]6C[C@@]7(C)[C@@H](CC[C@]7(OC(C)=O)C(C)=O)[C@@H]7CCC8=CC(=O)CCC8=C76)cc5)CC4)ccc3nc2-1 [Compound 8, (S)-10-((Dimethylamino)methyl)-4-ethyl-4-hydroxy-3,14-dioxo-3,4,12,14-tetrahydro-1H-pyrano[3′,4′:6,7]indolizino[1,2-b]quinolin-9-yl 4-(5-((4-((8S,11R,13S,14S,17R)-17-acetoxy-17-acetyl-13-methyl-3-oxo-2,3,6,7,8,11,12,13,14,15,16,17-dodecahydro-1H-cyclopenta[a]phenanthren-11-yl)phenyl)(methyl)amino)pentyl)piperazine-1-carboxylate] | 101 to 1000 nM | 10 to 100 nM | a (IC50 =< 10 nM) | 101 to 1000 nM | < 10 nM | 10 to 100 nM | 10 to 100 nM | < 10 nM
